Assay results published in US7932279B2 (ArQule, Inc., priority 2007, dated 2011).

Molecular target: T1, HSP90α (Homo sapiens, UniProt P07900)
T1 construct: purchased Stressgen Lot B506492
Assay: HSP90 binding assay (fluorescent ELISA, competition with biotinylated Geldanamycin)
Details: reported as range of IC50's
Description: The biochemical assay is described as follows.
Purified HSP90α […] was purchased from Stressgen Lot B506492. Single use aliquots of the 1.15 mg/ml stock were prepared and stored at −80° C. to avoid multiple freeze-thaw cycles.
A Nunc Maxisorb plate was coated overnight at 4° C. with 200 ng of HSP90/well dissolved in DPBS. The following day the plates were washed with TBST and blocked for 2 h at room temperature with blocking buffer (20 mM HEPES pH 7.3, 1 mM EDTA, 5 mM MgCl2, 100 mM KCl, 5% BSA). Blocking buffer was removed by washing plates with TBST, and test compounds dissolved in assay buffer (20 mM HEPES pH 7.3, 1 mM EDTA, 5 mM MgCl2, 100 mM KCl, 1% BSA) were added to plate. […] The reaction is incubated for 60 minutes at room temperature. […] Competitive inhibitory compounds will block this interaction from occurring.
The reactions were stopped by washing the plate with TBST. The binding of the bio-GM is detected by the addition of an Alkaline Phosphatase tagged Streptavidin molecule. A TBST wash eliminates any unbound detection agent, and the Alkaline Phosphate substrate Attophos is introduced. This substrate generates a fluorescent signal at […] when excited at […]. These plates can be monitored on either a Victor 5 or Perkin Elmer Envision multilabel reader.

Row | Compound | IC50
1 | 4-[1-(3-Methoxy-propyl)-1H-tetrazol-5-yl]-6-naphthalen-2-yl-benzene-1,3-diol [Compound 78] | 10 to 50 µM
2 | 5-[1-(3,3-Dimethyl-butyl)-1H-tetrazol-5-yl]-5′-isopropyl-2′-methoxy-biphenyl-2,4-diol [Compound 96] | 1 to 10 µM
3 | 5′-(1-Butyl-1H-tetrazol-5-yl-2′,4′-dihydroxy-biphenyl-3-carboxylic acid (3-dimethylamino-propyl)-methyl-amide [Compound 52] | > 50 µM
4 | COCCCn1nnnc1-c1cc(-c2cccc(C)c2)c(O)cc1O [Compound 8, 5-[1-(3-Methoxy-propyl)-1H-tetrazol-5-yl]-3′-methyl-biphenyl-2,4-diol] | 10 to 50 µM
5 | COCCn1nnnc1-c1cc(-c2cc(C(C)C)ccc2OC)c(O)cc1O [Compound 9] | 1 to 10 µM
6 | COCCn1nnnc1-c1cc(-c2cc(C(F)(F)F)ccc2F)c(O)cc1O [Compound 10, 2′-Fluoro-5-[1-(2-methoxy-ethyl)-1H-tetrazol-5-yl]-5′-trifluoromethyl-biphenyl-2,4-diol] | > 50 µM
7 | COCCn1nnnc1-c1cc(-c2cccc(OC(F)(F)F)c2)c(O)cc1O [Compound 11] | > 50 µM
8 | COCCn1nnnc1-c1cc(-c2cccc(C(F)(F)F)c2)c(O)cc1O [Compound 12] | > 50 µM
9 | COCCCn1nnnc1-c1cc(-c2ccccc2C(F)(F)F)c(O)cc1O [Compound 13, 5-[1-(3-Methoxy-propyl)-1H-tetrazol-5-yl]-2′-trifluoromethyl-biphenyl-2,4-diol] | > 50 µM
10 | COCCCn1nnnc1-c1cc(-c2cccc(OC(F)(F)F)c2)c(O)cc1O [Compound 17] | 1 to 10 µM
11 | COCCCn1nnnc1-c1cc(-c2ccc(C(F)(F)F)cc2)c(O)cc1O [Compound 18, 5-[1-(3-methoxy-propyl)-1H-tetrazol-5-yl]-4′-trifluoromethyl-biphenyl-2,4-diol] | > 50 µM
12 | COCCCn1nnnc1-c1cc(-c2cccc(C(=O)OC)c2)c(O)cc1O [Compound 21] | 10 to 50 µM
13 | CCCCn1nnnc1-c1cc(-c2cccc(C(=O)OC)c2)c(O)cc1O [Compound 22] | 10 to 50 µM
14 | COCCCn1nnnc1-c1cc(Br)c(O)cc1O [Compound 25] | > 50 µM
15 | COc1ccc(C(=O)N2CCC(n3nnnc3-c3cc(-c4cc(C(C)C)ccc4OC)c(O)cc3O)CC2)cc1 [Compound 37, {4-[5-(4,6-dihydroxy-5′-isopropyl-2′-methoxy-biphenyl-3-yl)-tetrazol-1-yl]-piperidin-1-yl}-(4-methoxy-phenyl)-methanone] | 1 to 10 µM
16 | CCN1CCC(n2nnnc2-c2cc(-c3cc(C(C)C)ccc3OC)c(O)cc2O)CC1 [Compound 38] | 1 to 10 µM
17 | CCNC(=O)N1CCC(n2nnnc2-c2cc(-c3cc(C(C)C)ccc3OC)c(O)cc2O)CC1 [Compound 39] | 1 to 10 µM
18 | COc1ccc(C(C)C)cc1-c1cc(-c2nnnn2C2CCN(C(=O)CC(C)C)CC2)c(O)cc1O [Compound 40, 1-{4-[5-(4,6-Dihydroxy-5′-isopropyl-2′-methoxy-biphenyl-3-yl)-tetrazol-1yl]-piperidin-1-yl}-3-methyl-butan-1-one] | 10 to 50 µM
19 | COc1ccc(C(C)C)cc1-c1cc(-c2nnnn2C2CCNCC2)c(O)cc1O [Compound 41] | 1 to 10 µM
20 | COc1ccc(C(C)C)cc1-c1cc(-c2nnnn2C2CCN(C(=O)OC(C)(C)C)C2)c(O)cc1O (stereo not shown) [Compound 42, 3-[5-(4,6-Dihydroxy-5′-isopropyl-2′-methoxy-biphenyl-3-yl)-tetrazol-1-yl]-pyrrolidine-1-carboxylic Acid Tert-Butyl Ester] | 10 to 50 µM
21 | COc1ccc(C(C)C)cc1-c1cc(-c2nnnn2C2CCN(C(=O)OC(C)(C)C)CC2)c(O)cc1O [Compound 43] | 10 to 50 µM
22 | CCCCn1nnnc1-c1cc(-c2cccc(C(=O)O)c2)c(O)cc1O [Compound 46] | > 50 µM
23 | COCCCn1nnnc1-c1cc(-c2cccc(C(=O)O)c2)c(O)cc1O [Compound 47] | > 50 µM
24 | CCCCn1nnnc1-c1cc(-c2cccc(C(=O)NC(C)COC)c2)c(O)cc1O (stereo not shown) [Compound 48, 5′-(1-Butyl-1H-tetrazol-5-yl)-2′,4′-dihydroxy-biphenyl-3-carboxylic acid (2-methoxy-1-methyl-ethyl)-amide] | > 50 µM
25 | CCCCn1nnnc1-c1cc(-c2cccc(C(=O)N3CCC(N4CCCC4)CC3)c2)c(O)cc1O [Compound 49, [5′-(1-Butyl-1H-tetrazol-5-yl)-2′,4′-dihydroxy-biphenyl-3-yl]-(4-pyrrolidin-1-yl-piperidin-1-yl)-methanone] | > 50 µM

Row | Compound | IC50
26 | CCCCn1nnnc1-c1cc(-c2cccc(C(=O)N3CCN(CC)CC3)c2)c(O)cc1O [Compound 50] | > 50 µM
27 | CCCCn1nnnc1-c1cc(-c2cccc(C(=O)N3CCCC(C(=O)N(CC)CC)C3)c2)c(O)cc1O (stereo not shown) [Compound 51] | > 50 µM
28 | CCCCn1nnnc1-c1cc(-c2cccc(C(=O)N3CCN(S(=O)(=O)CC)CC3)c2)c(O)cc1O [Compound 53, [5′-(1-Butyl-1H-tetrazol-5-yl)-2′,4′-dihydroxy-biphenyl-3-yl]-(4-ethanesulfonyl-piperazin-1-yl)-methanone] | > 50 µM
29 | CCCCn1nnnc1-c1cc(-c2cccc(C(=O)NCCCN3CCOCC3)c2)c(O)cc1O [Compound 54] | > 50 µM
30 | CCCCn1nnnc1-c1cc(-c2cccc(C(=O)NCCCN3CCCC3)c2)c(O)cc1O [Compound 55] | > 50 µM
31 | CCCCn1nnnc1-c1cc(-c2cccc(C(=O)N3CCN(CCCN4CCOCC4)CC3)c2)c(O)cc1O [Compound 56, [5′-(1-Butyl-1H-tetrazol-5-yl)-2′,4′-dihydroxy-biphenyl-3-yl]-[4-(3-morpholin-4-ylpropyl)-piperazin-1-yl]-methanone] | > 50 µM
32 | CCCCn1nnnc1-c1cc(-c2cccc(C(=O)NCCc3cccc(OC)c3)c2)c(O)cc1O [Compound 57] | > 50 µM
33 | CCCCn1nnnc1-c1cc(-c2cccc(C(=O)NCCN(C)C)c2)c(O)cc1O [Compound 58] | > 50 µM
34 | CCCCn1nnnc1-c1cc(-c2cccc(C(=O)NCCC3CCCN3C)c2)c(O)cc1O (stereo not shown) [Compound 59] | > 50 µM
35 | CCCCn1nnnc1-c1cc(-c2cccc(C(=O)NC(C)CN(C)C)c2)c(O)cc1O (stereo not shown) [Compound 60, 5′-(1-Butyl-1H-tetrazol-5-yl)-2′,4′-dihydroxy-biphenyl-3-carboxylic acid (2-dimethylamino-1-methyl-ethyl)-amide] | > 50 µM
36 | CCCCn1nnnc1-c1cc(-c2cccc(C(=O)N(CCO)CC(C)CC)c2)c(O)cc1O (stereo not shown) [Compound 61] | > 50 µM
37 | COCCCn1nnnc1-c1cc(-c2cccc(C(=O)NC(C)COC)c2)c(O)cc1O (stereo not shown) [Compound 62] | > 50 µM
38 | COCCCn1nnnc1-c1cc(-c2cccc(C(=O)N(C)CCN(C)C)c2)c(O)cc1O [Compound 63] | > 50 µM
39 | COCCCn1nnnc1-c1cc(-c2cccc(C(=O)N(C)CCCN(C)C)c2)c(O)cc1O [Compound 64, 2′,4′-Dihydroxy-5′-[1-(3-methoxy-propyl)-1H-tetrazol-5-yl]-biphenyl-3-carboxylic Acid (3-dimethylamino-propyl)-methyl-amide] | > 50 µM
40 | COCCCn1nnnc1-c1cc(-c2cccc(C(=O)NCCCN(C)C)c2)c(O)cc1O [Compound 65] | > 50 µM
41 | CCS(=O)(=O)N1CCN(C(=O)c2cccc(-c3cc(-c4nnnn4CCCOC)c(O)cc3O)c2)CC1 [Compound 66, {2′,4′-Dihydroxy-5′-[1-(3-methoxy-propyl)-1H-tetrazol-5-yl]-biphenyl-3-yl}-(4-ethanesulfonyl-piperazin-1-yl)-methanone] | > 50 µM
42 | COCCCn1nnnc1-c1cc(-c2cccc(C(=O)NCCCN3CCOCC3)c2)c(O)cc1O [Compound 67, 2′,4′-Dihydroxy-5′-[1-(3-methoxy-propyl)-1H-tetrazol-5-yl]-biphenyl-3-carboxylic Acid (3-morpholin-4-yl-propyl)-amide] | > 50 µM
43 | COCCCn1nnnc1-c1cc(-c2cccc(C(=O)NCCC3CCCN3C)c2)c(O)cc1O (stereo not shown) [Compound 68, 2′,4′-Dihydroxy-5′-[1-(3-methoxypropyl)-1H-tetrazol-5-yl]-biphenyl-3-carboxylic acid [2-(1-methyl-pyrrolidin-2-yl)-ethyl]-amide] | > 50 µM
44 | COCCCn1nnnc1-c1cc(-c2cccc(C(=O)N3CCN(CC4CCN(C)CC4)CC3)c2)c(O)cc1O [Compound 69] | > 50 µM
45 | COCCCn1nnnc1-c1cc(-c2cccc(C(=O)NC(C)CN(C)C)c2)c(O)cc1O (stereo not shown) [Compound 70, 2′,4′-Dihydroxy-5′-[1-(3-methoxy-propyl)-1H-tetrazol-5-yl]-biphenyl-3-carboxylic acid (2-dimethylamino-1-methyl-ethyl)-amide] | > 50 µM
46 | CCC(C)CN(CCO)C(=O)c1cccc(-c2cc(-c3nnnn3CCCOC)c(O)cc2O)c1 (stereo not shown) [Compound 71] | > 50 µM
47 | COCCCn1nnnc1-c1cc(-c2cccc(C(=O)N3CCN(CCN4CCCC4)CC3)c2)c(O)cc1O [Compound 72, {2′,4′-Dihydroxy-5′-[1-(3-methoxy-propyl)-1H-tetrazol-5-yl]-biphenyl-3-yl}-[4-(2-pyrrolidin-1-yl-ethyl)-piperazin-1-yl]-methanone] | > 50 µM
48 | COCCCn1nnnc1-c1cc(-c2ccc(OC(F)(F)F)cc2)c(O)cc1O [Compound 73] | > 50 µM
49 | COCCCn1nnnc1-c1cc(-c2ccc(Oc3ccccc3)cc2)c(O)cc1O [Compound 74, 5-[1-(3-Methoxy-propyl)-1H-tetrazol-5-yl]-4′-phenoxy-biphenyl-2,4-diol] | > 50 µM
